Reference: patent US11191811B2, “Osteocalcin as a treatment for frailty associated with aging” (THE TRUSTEES OF COLUMBIA UNIVERSITY IN THE CITY OF NEW YORK, priority 2014, dated 2021)
Entries after “also recorded” stand apart in the source; their conditions may differ.

Tests used:
muscle = test: S6K phosphorylation and protein synthesis; settings: FIG. 23; for protein synthesis: in muscle
From the text: FIG. 23. Osteocalcin promotes S6K phosphorylation and protein synthesis.
It has been shown that in muscle osteocalcin favors glucose uptake, glycolysis, fatty acid oxidation, and protein synthesis.

WT myotubes = test: 3H-2-deoxyglucose uptake in myotubes; type: cell-based, mouse
Description: (§1) The main nutrient used by muscle to generate energy at the onset of exercise is glucose and osteocalcin increased the uptake of ^3H-2-deoxyglucose (^3H-2DG) in WT but not in Gprc6a−/− myotubes (FIG. 26D-E). To exclude the involvement of other secreted molecules, this experiment was performed in serum-free conditions. […] This decrease in glucose uptake in muscles of Gprc6aMck−/− mice provides an explanation for why blood glucose levels were two-fold higher in Gprc6aMck−/− and Gprc6aHsa−/− than in control mice after exercise (FIG. 26G-H).
(§2) Glucose and insulin tolerance tests were performed as previously described (Lee et al., 2007, Cell 130:456-469). For in vivo glucose uptake, a bolus of 2-deoxy-d-[^3H]glucose (^3H-2-DG, Perkin Elmer) (10 μCi) was administered before an endurance run. ^3H-2-DG and ^3H-2-DG-6-P content in muscle was determined by liquid scintillation counter and normalized to muscle weight. Glucose uptake and fatty acid oxidation assays in myotubes were performed as previously described (Sebastian et al., 2007, Am. J. Physiol. Endocrinol. Metab. 292:E667-686). GLUT4 translocation was determined by flow cytometry using an antibody against the extracellular domain of the GLUT4 protein (Santa Cruz, Sc-1606). Measurements of oxygen consumption rates (OCR) in isolated myofibers were performed using a XF24 Seahorse Analyzer® (Seahorse Biosciences). To analyze mitochondrial function, myofibers were treated with three compounds in succession (oligomycin 10 μg/ml, FCCP 200 μM, rotenone 0.2 μM) and OCR was recorded following administration of each of them.
(§3) Culture of skeletal muscle myoblasts from 7 day-old mice was performed as described (Gharaibeh et al., 2008, Nature Protocols 3:1501-1509). Myoblasts were differentiated into myotubes for 3-4 days in a medium containing 5% horse serum. Muscle fibers were isolated from flexor digitorum brevis muscle. Muscles were dissected with DMEM 2% collagenase for 2 hours at 37° C., in a 5% CO2 incubator. […]

Gprc6a−/− myotubes = test: 3H-2-deoxyglucose uptake in myotubes; type: cell-based, mouse; settings: serum-free conditions
Description: as §1, §2, §3

muscles of WT mice = test: Western blot of Akt, AMPK and HSL phosphorylation in muscles of WT mice given Ocn; type: in vivo, mouse
Description: FIG. 31. Osteocalcin treatment increases muscle function in young and old WT mice. (A-B) Performance during endurance exercise of 3 month-old WT, Gprc6af/f and Gprc6aMck−/− female mice treated with Ocn (n=6-10 per group). (C) Performance during endurance exercise of 12 and 15 month-old WT female mice treated with Ocn (n=6-10 per group). (D) Western blot analysis of Akt phosphorylation (Ser473) in muscles of WT mice injected with Ocn (500 ng/g) after a single bout of exercise. (E) Western blot analysis of AMPK phosphorylation ([…]) in muscles of WT mice injected with Ocn (500 ng/g) after a single bout of exercise. (F) Western blot analysis of HSL phosphorylation (Ser563) in muscles of WT mice injected with Ocn (500 ng/g) after a single bout of exercise. (G) Uptake of ^3H-2-DG in glycolytic (Gly—white quadriceps) and oxidative (Ox—red quadriceps) muscles after a single bout of exercise in 15 month-old WT mice receiving Ocn before running (n=5 per group). (H) Performance during endurance exercise of 10 month-old WT mice receiving Ocn for 28 days (n=7 per group). (I) Expression of Cd36, Fatp1 and Cpt1b in gastrocnemius of 10 month-old WT mice receiving Ocn for 28 days (n=7 per group). (J) Western blot analysis of Akt phosphorylation (Ser473) in muscles of WT mice receiving Ocn for 28 days (n=7 per group). (K) Schematic representation of how osteocalcin signaling in myofibers and IL-6 cooperate to increase exercise capacity.
To determine if osteocalcin has the same ability in older mice, 12 and 15 month-old mice that have low circulating osteocalcin levels were injected prior to running with 500 ng/g of body weight of osteocalcin in order to raise their circulating levels substantially. […] This was due to an increase in the phosphorylation of Akt, AMPK and HSL, as well as in glucose uptake, that occurred to a greater extent in oxidative muscles that express Gprc6a at the highest level, than in glycolytic muscles (FIG. 31C-F). Whether chronic delivery of osteocalcin through mini-pumps (90 ng/hour) for 28 days would increase muscle function in 9 month old mice that have the lowest circulating osteocalcin levels was also tested. […] This improved ability to perform exercise was caused in part by an increase in the expression in muscle of the fatty acid transporter Fatp1 and an activation of the Akt pathway (FIG. 31H-).

wild-type = test: Glycolysis, extracellular acidification rate (ECAR); type: cell-based, mouse; settings: ECAR (FIG. 20); in muscle
From the text: FIG. 20. Osteocalcin favors glycolysis. (a) Effect of increasing amounts of uncarboxylated osteocalcin on change in extracellular acidification rate (ECAR) in wild-type mice. The effect of insulin is also shown for comparison. (B) Effect of uncarboxylated osteocalcin on ECAR of wild-type and Gprc6a^−/− mice. (C) L-lactate production in wild-type and Gprc6a^−/− mice.

wild type mice = test: Glucose tolerance test after subcutaneous infusion; type: in vivo, mouse; settings: 0.3 or 3 ng/hour subcutaneously for 14 days, 120 minutes following glucose injection
Description: FIG. 2. Osteocalcin subcutaneous infusion increases glucose tolerance in wild-type mice. Wild-type mice were infused subcutaneously with indicated doses of recombinant osteocalcin or PBS for 14 days before receiving a single injection of glucose. Blood glucose was measured thereafter at indicated times.
For glucose tolerance test (GTT), glucose (2 g/kg body weight (BW)) was injected intraperitoneally (IP) after an overnight fast and blood glucose was monitored using blood glucose strips and the Accu-Check glucometer (Roche) at indicated times.
In another in vivo experiment, the effect of uncarboxylated osteocalcin on glucose tolerance was investigated. Wild type mice were infused subcutaneously with either 0.3 or 3 ng/hour doses of recombinant uncarboxylated osteocalcin or PBS for 14 days before receiving a single injection of glucose. Blood glucose was measured thereafter at the indicated times.

[1] = WT mice injected with Ocn (500 ng/g), after a single bout of exercise, listed as osteocalcin

Question: With “uncarboxylated osteocalcin: Recombinant uncarboxylated mouse osteocalcin, bacterially produced, purified on glutathione beads and cleaved from the GST subunit by thrombin (YLGASVPSPDPLEPTREQCELNPACDELSDQYGLKTAYKRIYGITI)” as the substance, how does the S6K phosphorylation (muscle) read?
Answer: promotes

Question: And the protein synthesis (muscle; listed as Osteocalcin)?
Answer: promotes

Question: And the protein synthesis (muscle; listed as osteocalcin)?
Answer: favors

Question: And the “uptake of 3H-2-deoxyglucose (3H-2DG)” value (WT myotubes; WT myotubes, serum-free conditions)?
Answer: increased

Question: What about the glucose uptake (WT myotubes; as worded in FIG. 19 (wild-type) and summary (in muscle)) of the same substance?
Answer: favors

Question: And the “uptake of 3H-2-deoxyglucose (3H-2DG)” value (Gprc6a−/− myotubes)?
Answer: not

Question: What about the “phosphorylation of AMPK in muscle” value (muscles of WT mice; WT mice injected with Ocn (500 ng/g), after a single bout of exercise) of the same substance?
Answer: increase

Question: What about the “phosphorylation of Akt in muscle” value (muscles of WT mice; WT mice injected with Ocn (500 ng/g), after a single bout of exercise, listed as Osteocalcin) of the same substance?
Answer: induced

Question: And the “phosphorylation of Akt in muscle” value (muscles of WT mice; [1])?
Answer: increase

Question: What about the “phosphorylation of HSL (Ser563) in muscle” value (muscles of WT mice; [1]) of the same substance?
Answer: enhanced; also recorded: increase

Question: And the “Akt pathway in muscle” value (muscles of WT mice; mini-pumps 90 ng/hour for 28 days)?
Answer: activation

Question: And the glycolysis (wild-type)?
Answer: favors

Question: And the glucose tolerance (wild type mice)?
Answer: increased

Question: And the glucose tolerance (wild type mice; listed as Osteocalcin)?
Answer: increases
